The values that follow come from patent publication US10428076B2, “Soluble guanylate cyclase stimulators” (Merck Sharp & Dohme Corp., priority 2015, dated 2019).

In assay [1] the target is sGC α1/β1 heterodimer stably expressed in CHO-K1 cells (CHO-K1/sGC) (Homo sapiens (Human), UniProt Q02108+Q02153). Briefly: Cell-based sGC functional assay (Cyclic GMP Assay for sGC Activator: CASA assay). The following applies: for Emax: CHO-K1, activity expressed as a percentage of compound A (standard), read-out: % Activation. The text has this: Cell-based sGC Functional Assay (Cyclic GMP Assay for sGC Activator: CASA Assay)
Soluble guanylate cyclase (sGC) is a heme-containing enzyme that converts GTP to secondary messenger cGMP. Increases in cGMP levels affect several physiological processes including vasorelaxation through multiple downstream pathways. […] Heme-dependent activators (HDAs) preferentially activate sGC containing a ferrous heme group. To determine the effect of sGC activators on enzyme activity, the CASA assay was developed to monitor the generation of cGMP in a cell line that stably expresses the heterodimeric sGC protein.
Methods: A CHO-K1 cell line stably expressing the sGC α1/β1 heterodimer was generated using a standard transfection protocol. CHO-K1 cells were transfected with plasmids pIREShyghsGCα1 and pIRESneo-hsGCβ1 simultaneously using FUGENE reagent. Clones that stably express both subunits were selected with hygromycin and neomycin for ˜2 weeks. Clone #7 was chosen for the assay and was designated CHO-K1/sGC. CHO-K1/sGC cells were maintained in F-K12 medium containing 10% heat-inactivated Fetal Bovine Serum (FBS), 100 μg/mL penicillin/streptomycin, 0.5 mg/mL hygromycin and 0.25 mg/mL G418. The cells were then cryopreserved in LN2. On the day of the assay, the cells were thawed and resuspended in EBSS Assay Buffer (Sigma, E3024) supplemented with 5 mM MgCl2, 10 mM HEPES (4-(2-hydroxyethyl)piperazine-1-ethanesulfonic acid) and 0.05% BSA (bovine serum albumin) (EAB) and cell density was then adjusted to 2.25×10^5/mL with EAB. IBMX (3-isobutyl-1-methylxanthin, 0.5 mM) was added to inhibit degradation of cGMP. Compounds were diluted from DMSO stock solutions and added to the assay at a final DMSO concentration of 2.5%. Cells were pre-incubated in the presence and absence of 1 μM of Diethylenetriamine/nitric oxide adduct (DETA-NO; Sigma, 17018) for 30 min at 25° C. Compounds are subsequently added and incubated for 1 hr at 37° C. At the end of the incubation period, the reaction was terminated and the cells were lysed with the detection reagents from Cisbio Kits. The level of intracellular cGMP was determined using an HTRF-based assay kit (CisBio, 62GM2PEC), which detects the displacement of a fluorescence labeled cGMP from its specific antibody. The cGMP produced by test compounds was directly compared to the maximum cGMP production (this value was set to equal 100% activation.) of the published sGC-HDA compound A:
[drawing 491] (Example 1 in WO 2010/065275, published Jun. 10, 2010). The test compounds' activity were then expressed as a percentage of compound A, the standard in every experiment. This percent activation was calculated either in the presence or absence of DETA-NO which was then plotted. Inflection points (IP) and maximum fold induction was derived using Abase analysis software for 4P fit.

For assay [2], the target named is human recombinant sGC enzyme (Homo sapiens (Human), UniProt Q02108+Q02153). Nature of the assay: Size Exclusion Chromatography (SEC) competition binding assay using [3H] Ex-77B as the radioligand. Particulars: [3H] Ex-77B radioligand, 24 hours at 37° C., 300 μM DETA/NO. Here is the method:
Binding Assay: The binding potencies of sGC compounds to the human recombinant sGC enzyme were determined in a Size Exclusion Chromatography (SEC) competition binding assay using [^3H] Ex-77B as the radioligand. [^3H] […] The parent (non-labeled) molecule was first iodinated then a Pd-catalyzed iodine to tritium exchange provided the labeled compound. […] Assays were conducted in 96-well plates in a total volume of 200 μL. […] Non-specific binding was defined by competition with 1 μM of Ex-77B. After the incubation period, the binding mixtures were loaded onto the gel-filtration plate (ThermoFischer Cat. No. 89808) pre-equilibrated with binding buffer and spun at 1000×g for 3 min at 4° C. on a Bench top centrifuge. The collected eluates in White Frame Clear Well Isoplates (Perkin Elmer Cat #6005040) received 100 μl of UltimaGold scintillation cocktail. The sealed plates were shaken vigorously and span, and counted after 6 hours with a Wallac Microbeta TriLux 1450 LSC & Luminescence Counter (Perkin Elmer).

For `CC1CCC(Cn2nc(-c3nc(N)c4c(n3)NC(=O)C4(C)c3nc(CC(C)(C)C(=O)O)co3)c3ccc(F)cc32)CC1` (racemic) [Example 137AA, 3-{2-[4-amino-2-{6-fluoro-1-[4-methylcyclohexylmethyl]-1H-indazol-3-yl}-5-methyl-6-oxo-6,7-dihydro-5H-pyrrolo[2,3-d]pyrimidin-5-yl]-1,3-oxazol-4-yl}-2,2-dimethylpropanoic acid], the Emax in assay [1] was determined as 92.1%.
Take `CC1(c2nn(C(C)(C)C(=O)O)c(=O)o2)C(=O)Nc2nc(-c3nn(CCC(F)(F)C(F)(F)F)c4cc(Cl)ccc34)nc(N)c21` (single isomer, unassigned) [Example 99B, 2-[5-{4-Amino-2-[6-chloro-1-(3,3,4,4,4-pentafluorobutyl)-1H-indazol-3-yl]-5-methyl-6-oxo-6,7-dihydro-5H-pyrrolo[2,3-d]pyrimidin-5-yl}-2-oxo-1,3,4-oxadiazol-3(2H)-yl]-2-methylpropanoic acid]: the Emax in assay [1] is 110%.
As to `CC(C)(Cn1cc(C2(C)C(=O)Nc3nc(-c4nn(Cc5ccccc5F)c5cc(Cl)ccc45)nc(N)c32)nn1)C(=O)O` (single isomer, unassigned) [Example 140A, 3-(4-{4-Amino-2-[6-chloro-1-(2-fluorobenzyl)-1H-indazol-3-yl]-5-methyl-6-oxo-6,7-dihydro-5H-pyrrolo[2,3-d]pyrimidin-5-yl}-1H-1,2,3-triazol-1-yl)-2,2-dimethylpropanoic acid], the Emax in assay [1] came out at 99%.
For `CC1(c2cn(C(C)(C)C(=O)O)nn2)C(=O)Nc2nc(-c3nn(Cc4ccccc4F)c4cc(Cl)ccc34)nc(N)c21` (single isomer, unassigned) [Example 141A, 2-(4-{4-Amino-2-[6-chloro-1-(2-fluorobenzyl)-1H-indazol-3-yl]-5-methyl-6-oxo-6,7-dihydro-5H-pyrrolo[2,3-d]pyrimidin-5-yl}-1H-1,2,3-triazol-1-yl)-2-methylpropanoic acid], the Emax in assay [1] came out at 98.7%.
Same read-out and setting: the result for `CC(C)(Cc1coc(C2(C)C(=O)Nc3nc(-c4nn(CC5CCCCO5)c5ccccc45)nc(N)c32)n1)C(=O)O` (single isomer, unassigned) [Example 230AA, 3-{2-[4-amino-5-methyl-6-oxo-2-{1-[tetrahydro-2H-pyran-2-ylmethyl]-1H-indazol-3-yl}-6,7-dihydro-5H-pyrrolo[2,3-d]pyrimidin-5-yl]-1,3-oxazol-4-yl}-2,2-dimethylpropanoic acid] reads 99.1%; that for `CC1(c2ccc(CCc3nn[nH]n3)cn2)C(=O)Nc2nc(-c3nn(Cc4ccccc4F)c4ccccc34)nc(N)c21` (single isomer, unassigned) [Example 246A, 5-{5-[2-(2H-tetrazol-5-yl)ethyl]pyridin-2-yl}-4-amino-2-[1-(2-fluorobenzyl)-1H-indazol-3-yl]-5-methyl-5,7-dihydro-6H-pyrrolo[2,3-d]pyrimidin-6-one], 95.3%; that for `CC1(c2ccc(CCc3nn[nH]n3)cn2)C(=O)Nc2nc(-c3nn(Cc4ccccc4F)c4cc(Cl)ccc34)nc(N)c21` (single isomer, unassigned) [Example 247A, 5-{5-[2-(2H-tetrazol-5-yl)ethyl]pyridin-2-yl}-4-amino-2-[6-chloro-1-(2-fluorobenzyl)-1H-indazol-3-yl]-5-methyl-5,7-dihydro-6H-pyrrolo[2,3-d]pyrimidin-6-one], 86.9%.
On the same count and under the same terms, to `CC1(c2cccc(-c3nn[nH]n3)c2)C(=O)Nc2nc(-c3nn(CCC(F)(F)C(F)(F)F)c4ncccc34)nc(N)c21` (single isomer, unassigned) [Example 252B, 4-amino-5-methyl-2-[1-(3,3,4,4,4-pentafluorobutyl)-1H-pyrazolo[3,4-b]pyridin-3-yl]-5-[3-(2H-tetrazol-5-yl)phenyl]-5,7-dihydro-6H-pyrrolo[2,3-d]pyrimidin-6-one] belongs 87.6%; to `CC1(c2cccc(-c3nn[nH]n3)n2)C(=O)Nc2nc(-c3nn(Cc4ccccc4F)c4cc(Cl)ccc34)nc(N)c21` (single isomer, unassigned) [Example 253A, 5-[6-(2H-tetrazol-5-yl)pyridin-2-yl]-4-amino-2-[6-chloro-1-(2-fluorobenzyl)-1H-indazol-3-yl]-5-methyl-5,7-dihydro-6H-pyrrolo[2,3-d]pynmidin-6-one], 96.7%; to `CC1(c2ccc(CCS(=O)(=O)O)cc2)C(=O)Nc2nc(-c3nn(Cc4ccccc4F)c4cc(Cl)ccc34)nc(N)c21` (single isomer, unassigned) [Example 258B, 2-(4-{4-Amino-2-[6-chloro-1-(2-fluorobenzyl)-1H-indazol-3-yl]-5-methyl-6-oxo-6,7-dihydro-5H-pyrrolo[2,3-d]pyrimidin-5-yl}phenyl)ethanesulfonic acid], 98.2%.
Still for that read-out and setting: the result for `CC1(N2CCC(CCC(=O)O)C2)C(=O)Nc2nc(-c3nn(Cc4ccccc4F)c4cc(Cl)ccc34)nc(N)c21` (single isomer, unassigned) [Example 261C, 3-[1-{4-Amino-2-[6-chloro-1-(2-fluorobenzyl)-1H-indazol-3-yl]-5-methyl-6-oxo-6,7-dihydro-5H-pyrrolo[2,3-d]pyrimidin-5-yl}pyrrolidin-3-yl]propanoic acid] reads 113%.
In the case of `CC(C)(Cc1csc(C2(C3CC3)C(=O)Nc3nc(-c4nn(CCCC(F)(F)F)c5ncc(F)cc45)nc(N)c32)n1)C(=O)O` (stereo not drawn) [Example 96B, 3-(2-{4-amino-5-cyclopropyl-2-[5-fluoro-1-(4,4,4-trifluorobutyl)-1H-pyrazolo[3,4-b]pyridin-3-yl]-6-oxo-6,7-dihydro-5H-pyrrolo[2,3-d]pyrimidin-5-yl}thiazol-4-yl)-2,2-dimethylpropanoic acid], in assay [1], the Emax was 54%. In assay [1] (inflection point (IP) from 4P fit of percent activation), this molecule came in with an EC50 of 0.311 µM. Further, the Ki in assay [2] was found to be 0.0122 µM.
In the case of `C[C@@]1(c2ccc(CCc3noc(=O)[nH]3)cc2)C(=O)Nc2nc(-c3nn(Cc4ccccc4F)c4cc(Cl)ccc34)nc(N)c21` [Example 256B, (S)-4-Amino-2-[6-chloro-1-(2-fluorobenzyl)-1H-indazol-3-yl]-5-methyl-5-{4-[2-(5-oxo-4,5-dihydro-1,2,4-oxadiazol-3-yl)ethyl]phenyl}-5,7-dihydro-6H-pyrrolo[2,3-d]pyrimidin-6-one], the “% Activation” value in assay [1] (activity expressed as a percentage of compound A (standard)) came out at 104.4%.

What is called EC50 is the concentration giving half of the maximal effect. Low values mean an effect from little substance, high ones a need for much substance. The term Ki denotes a measure of affinity in units of concentration, obtained from inhibition or displacement.
